Experiments:
Assay type in all cases: cell-based
[1] = test system: Streptococcus pyogenes 203; experiment: Broth micro-dilution MIC, S PY 203; settings: unit assumed
Experimental: (§1) The antibacterial efficacy of the present compounds is illustrated in TABLE 2. The minimal inhibitory concentrations (MICs) were determined using a standard broth micro-dilution assay.

[2] = test system: Enterococcus, Sensitive (4-6 isolates); experiment: Enterococcus screen, broth micro-dilution MIC, sensitive isolates; parameters: unit not given here; settings: mean of 4-6 isolates
Experimental: as §1

[3] = test system: Staphylococcus aureus 446; experiment: Broth micro-dilution MIC, SA 446; settings: unit assumed
Experimental: as §1

[4] = test system: Staphylococcus haemolyticus 415; experiment: Broth micro-dilution MIC, SH 415; settings: unit assumed
Experimental: as §1

[5] = test system: Staphylococcus aureus 447; experiment: Broth micro-dilution MIC, SA 447; settings: unit assumed
Experimental: as §1

[6] = test system: Staphylococcus haemolyticus 105; experiment: Broth micro-dilution MIC, SH 105; settings: unit assumed
Experimental: as §1

[7] = test system: Staphylococcus aureus 489; experiment: Broth micro-dilution MIC, SA 489; settings: unit assumed
Experimental: as §1

[8] = test system: Streptococcus pneumoniae P1; experiment: Broth micro-dilution MIC, S PN P1; settings: unit assumed
Experimental: as §1

[9] = test system: Enterococcus, Resistant (4-6 isolates); experiment: Enterococcus screen, broth micro-dilution MIC, resistant isolates; parameters: unit not given here; settings: mean of 4-6 isolates
Experimental: as §1

[10] = test system: Staphylococcus epidermis 270; experiment: Broth micro-dilution MIC, SE 270; settings: unit assumed
Experimental: as §1

| Substance | MIC, S PY 203 [1] | Minimum Inhibitory Concentrations (MICs), Mean Values of 4-6 Isolates, Sensitive [2] | MIC, SA 446 [3] | MIC, SH415 [4] | MIC, SA 447 [5] | MIC, SH105 [6] | MIC, SA 489 [7] | MIC, S PN P1 [8] | Minimum Inhibitory Concentrations (MICs), Mean Values of 4-6 Isolates, Resistant [9] | MIC, SE270 [10] |
| --- | --- | --- | --- | --- | --- | --- | --- | --- | --- | --- |
| N^4 -(4-PHENOXYBENZYL)A82846B, 3-(DIMETHYLAMINO)PROPYLAMIDE, TRIFLUOROACETATE SALT [Example 1] | ≤ 0.06 µg/mL | 0.13 | 4 µg/mL | 2 µg/mL | 1 µg/mL | 2 µg/mL | 2 µg/mL | ≤ 0.125 µg/mL | 1.4 | 0.25 µg/mL |
| N^4 -(4-phenoxybenzyl)A82846B, benzylamide, trifiuoroacetate salt [Example 9] | ≤ 0.06 µg/mL | 0.082 | 1 µg/mL | 1 µg/mL | 1 µg/mL | 1 µg/mL | 1 µg/mL | ≤ 0.06 µg/mL | 2 | 0.5 µg/mL |
| N^4 -(4-phenoxybenzyl)A82846B, phenethylamide, trifluoroacetate salt [Example 14] | ≤ 0.06 µg/mL | 0.01 | 2 µg/mL | 2 µg/mL | 2 µg/mL | 0.5 µg/mL | 1 µg/mL | ≤ 0.06 µg/mL | 2 | 1 µg/mL |
| N^4 -(4-phenylbenzy1)A82846B, DL-(2-furanon-3-yl)amide [Example 7] | ≤ 0.06 µg/mL | 0.048 | 2 µg/mL | 1 µg/mL | 2 µg/mL | 0.5 µg/mL | 1 µg/mL | ≤ 0.06 µg/mL | 1.7 | 0.5 µg/mL |
| N^4 -(4-phenylbenzyl)A82846B, (4-cyclohexylphenyl) amide, trifluoroacetate salt [Example 8] | ≤ 0.06 µg/mL | 0.33 | 2 µg/mL | 4 µg/mL | 2 µg/mL | 4 µg/mL | 4 µg/mL | ≤ 0.06 µg/mL | 6.7 | 2 µg/mL |
| N^4 -(4-phenylbenzyl)A82846B, butylamide, trifluoroacetate salt [Example 3] | ≤ 0.06 µg/mL | 0.11 | 2 µg/mL | 2 µg/mL | 2 µg/mL | 0.5 µg/mL | 4 µg/mL | ≤ 0.06 µg/mL | 2.4 | 1 µg/mL |
| N^4 -(4-phenylbenzyl)A82846B, methylamide, trifluoroacetate salt [Example 2] | ≤ 0.06 µg/mL | 0.041 | 1 µg/mL | 0.25 µg/mL | 0.5 µg/mL | 0.125 µg/mL | 1 µg/mL | ≤ 0.06 µg/mL | 1.19 | ≤ 0.06 µg/mL |
